Source: patent publication US20230038646A1, “NOVEL AND POTENT JAK/STAT INHIBITOR” (Texas Tech University System, priority 2020, published 2023)

What was measured:
[1] = system: Daoy, UW228, ONS76, UW246, PFSK1 (medulloblastoma), IMR32, SF268, SF295 (glioblastoma), SK-N-AS (neuroblastoma) cells; experiment: Proliferation / survival of brain cancer cell line panel (FIGS. 5A-5I); format: cell-based
[2] = system: Daoy cells (medulloblastoma); experiment: Subcutaneously implanted Daoy tumor growth in mice; format: in vivo; settings: subcutaneous Daoy
Description: (§1) Moxidectin suppresses the growth of subcutaneously implanted brain cancer cells. To evaluate the ability of moxidectin in inhibiting the growth of brain tumor cells in vivo, ~ 4 million Daoy cells were injected subcutaneously into the right flank of the mice. Once the tumor cells started growing and the tumor volume reached ~ 70 mm^3, mice were randomized into four groups. Control group received the vehicle whereas the treatment group received 2.5 mg/kg, 5 mg/kg and 10 mg/kg moxidectin once every day. The tumor readings were taken twice a week throughout the course of the experiment using Vernier caliper. […] Similarly, 2.5 mg/kg and 5 mg/kg moxidectin suppressed Daoy tumor growth by 45% and 60% respectively (FIG. 4B).
as §1, with “4C). […] In another experiment, ~0.3 million Daoy luc cells were injected intracranially in the brain of athymic nude mice. The mice were given 2.5 mg/kg for 33 days. Moxidectin was able to inhibit -65% of intracranially implanted medulloblastoma tumors. […] Additionally, ~ 3 million SK-N-AS neuroblastoma cells were injected subcutaneously in the right flank of the mice. Mice were randomized on day 10. Treatment group received 3.5 mg/kg moxidectin. The experiment was terminated on day 23. Moxidectin was able to inhibit 60% of subcutaneously implanted neuroblastoma tumors (FIG. 4D).” for “4B).”

[3] = system: Daoy (medulloblastoma), IMR32 (neuroblastoma) and KNS42 (glioblastoma) cells; experiment: Proliferation / survival of brain cancer cells (FIGS. 1A-1C); format: cell-based
Text: Moxidectin treatment suppresses the proliferation of brain cancer cells.

Bcl-2 = experiment: Western blotting of Bcl-2 expression in treated brain cancer cells; format: cell-based; settings: Daoy, IMR32 and KNS42; 48 hours
Description: (§2) Moxidectin inhibits JAK-STAT signaling. In order to delineate the mechanism by which moxidectin mediates its anti-cancer effects in brain cancer cell lines, Daoy, IMR32, and KNS42 cells were treated with 0, 10, 15 and 20 µM moxidectin for 48 hours and evaluated by western blotting. […] It has been reported that, upon activation (phosphorylation) JAK2 activates multiple downstream transcription factors one of which is STAT3. Hyper activation of STAT3 in cancer cells is strongly attributed to evasion of apoptosis and transcriptional activation of anti-apoptotic proteins such as Bcl-2 and c-myc.
(§3) Moreover, moxidectin increased the cleavage of caspase 3 and PARP as an indication of apoptosis, a primary mode of cell death (FIG. 3).
(§4) Moreover, moxidectin increased the cleavage of caspase 3 and PARP as an indication of apoptosis, a primary mode of cell death (FIG. 7).

[4] = system: SK-N-AS neuroblastoma cells; experiment: Subcutaneously implanted SK-N-AS neuroblastoma tumors in mice; format: in vivo; settings: 3.5 mg/kg; randomized day 10, terminated day 23
[5] = system: Daoy luc cells (medulloblastoma); experiment: Intracranially implanted Daoy luc tumors in mice; format: in vivo, athymic nude mice; settings: 2.5 mg/kg for 33 days; intracranial Daoy luc
Janus Kinase 2 (JAK2) = experiment: Western blotting of JAK2 in treated brain cancer cells; format: cell-based; settings: Daoy, IMR32, KNS42, 0, 10, 15 and 20 µM, 48 hours
Description: Daoy, IMR32, and KNS42 cells were treated with 0, 10, 15 and 20 µM moxidectin for 48 hours and evaluated by western blotting.
as §2
(§5) It has been reported that, upon activation (phosphorylation) JAK2 activates multiple downstream transcription factors one of which is STAT3. Hyperactivation of STAT3 in cancer cells is strongly attributed to evasion of apoptosis and transcriptional activation of anti-apoptotic proteins such as Bcl-2 and c-myc.

[6] = system: Daoy, UW228, ONS76, UW426, PFSK1 and IMR32 brain cancer cells; experiment: Annexin V/FITC apoptosis assay (FIGS. 6A-6F); format: cell-based
Description: (§6) The mode of cell death caused by moxidectin treatment was determined by Annexin V/FITC assay in Daoy, UW228, ONS76, UW426, PFSK1 and IMR32 brain cancer cells (FIGS. 6A-6F, resepectively). […] 15 µM moxidectin induced -80% apoptosis in Daoy and IMR32 brain cancer cell lines. The percentage of apoptotic cells with 20 µM moxidectin treatment ranged from 90-100% in all the brain cancer cell lines. Induction of apoptosis by moxidectin treatment in these cell lines was further assessed by increase in the cleavage of caspase 3 and PARP (FIG. 3).
as §6, with “FIGS. 6A-6F show the induction of apoptosis by moxidectin. The mode” for “The mode”, “PARP (FIG. 7).” for “PARP (FIG. 3).”

STAT3 = experiment: Western blotting of STAT3 phosphorylation in treated brain cancer cells; format: cell-based; settings: Daoy, IMR32, KNS42; 0, 10, 15 and 20 µM, 48 hours
Description: as §2, §5

[7] = system: Daoy, KNS42 and IMR32 brain cancer cells; experiment: Annexin V/FITC apoptosis assay (FIGS. 2A-2C); format: cell-based
Description: The percentage of apoptotic cells with 20 µM moxidectin treatment ranged from 90-100% in all the brain cancer cell lines tested (FIGS. 2A-2C).
Induction of apoptosis by moxidectin. The mode of cell death caused by moxidectin treatment was determined by Annexin V/FITC assay in Daoy, KNS42 and IMR32 brain cancer cells. […] 15 µM moxidectin induced -80% apoptosis in Daoy, KNS42 and IMR32 brain cancer cell lines. The percentage of apoptotic cells with 20 µM moxidectin treatment ranged from 90-100% in all the brain cancer cell lines tested (FIGS. 2A-2C). Induction of apoptosis by moxidectin treatment in these cell lines was further assessed by increase in the cleavage of caspase 3 and PARP (FIG. 3).

caspase 3 and PARP = experiment: Western blotting of caspase 3 and PARP cleavage in treated brain cancer cells; format: cell-based; settings: Daoy, IMR32 and KNS42; 48 hours
Description: as §2, §3, §4

[8] = varying concentrations, concentration and time-dependent
[9] = treatment for 48 hours, all brain cancer cells

Q: What does the source list for `CO/N=C1\C[C@]2(C[C@@H]3C[C@@H](C/C=C(\C)C[C@@H](C)/C=C/C=C4\CO[C@@H]5[C@H](O)C(C)=C[C@@H](C(=O)O3)[C@]45O)O2)O[C@H](/C(C)=C/C(C)C)[C@H]1C` [Moxidectin]?
A: IC50 ([1]; all brain cancer cell lines, 24, 48 and 72-hour time point): 9.7 to 30 µM; survival of cells [1, 8]: significant reduction; suppression of tumor growth ([2]; 2.5 mg/kg once every day): 45%; suppression of tumor growth ([2]; 5 mg/kg once every day): 60%; suppression of tumor growth ([2]; 10 mg/kg once every day): 90%; IC50 ([3]; Daoy, IMR32 and KNS42, 24, 48 and 72-hour time point): 11 to 16 µM; survival of cells [3, 8]: significant reduction; expression of anti-apoptotic protein Bcl-2 (Bcl-2): reduced; inhibition of subcutaneously implanted neuroblastoma tumors [4]: 60%; inhibition of intracranially implanted tumors [5]: 65%; protein level of JAK2 (Janus Kinase 2 (JAK2)): remained unchanged; phosphorylation of JAK2 at Tyr1007/1008 (Janus Kinase 2 (JAK2); concentration-dependent): reduced; apoptotic effects ([6]; 10 µM, 48 hours, all cell lines tested): minimal apoptotic effects; apoptosis induced ([6]; 15 µM, 48 hours, Daoy and IMR32): 80%; percentage of apoptotic cells ([6]; 20 µM, 48 hours, all cell lines): 90-100%; apoptosis [6, 9]: significant increase; phosphorylation of STAT3 at Tyr705 (STAT3): reduced; apoptotic effects ([7]; 10 µM, 48 hours, all three cell lines): minimal apoptotic effects; apoptosis induced ([7]; 15 µM, 48 hours, Daoy, KNS42 and IMR32): 80%; percentage of apoptotic cells ([7]; 20 µM, 48 hours, all cell lines tested): 90-100%; apoptosis [7, 9]: significant increase; cleavage of caspase 3 and PARP (caspase 3 and PARP): increased
